This note sets out measurements from US8889699B2, “5-fluorouracil derivative” (Delta-Fly Pharma, Inc., priority 2009, dated 2014).

Data set [1] has as its system Human colon cancer strain (KM12C). The procedure: (§1) The resulting product was stirred with a stirrer at room temperature for about 10 minutes. […] The proliferated strain was extracted, cut into about 2 to 3 mm square pieces with scissors in physiological saline, and subcutaneously inoculated to the right axillary region of rats of the same strain, 5 to 6 weeks of age, using a transplantation needle. […] Then, drug administration was initiated from the next day. Each of the test liquids shown in (a) to (b) above was administered orally to the rats in each of the test drug groups using a sonde for oral administration at a dose of 0.1 ml per 10 g body weight once a day for 14 continuous days. In the same manner as the above, the cancer-bearing rats in the control group were subjected to oral administration of only 0.5% HPMC liquid for 14 continuous days.
(§2) The tumor volume of each rat in each group before the initiation of the treatment, on day 3, day 5, day 8 (1 week after), day 11, and day 15 (2 weeks after), i.e., after termination of the administration, was calculated using Equation 1 below, and respective relative tumor volume (RTV) relative to the tumor volume at the time of initiation of the treatment was calculated. In relation to the antitumor effect, the average value of the tumor proliferation inhibition ratio (IR; %) was calculated from the average tumor volume of each treatment group on day 15 (after termination of the treatment) relative to that of the control group on day 15, using Equation 2. […] Along therewith, a weight change ratio was calculated from the body weight of the rats at the time of the termination of the drug administration relative to the body weight of the rats at the time of the initiation of the administration, using Equation 3. […] A coagulation inhibitor was added to each of the collected blood samples, and the white blood cell count, red blood cell count, and platelet count were measured using a hemocytometer.

In data set [2] the target is T1, DPD (Rattus norvegicus, UniProt O89000).
T1 construct: the obtained supernatant was used as a DPD enzyme solution or an OPRT enzyme solution; from tissue; host or cells: liver of 8-week old SD rat; 105,000 g supernatant of homogenate
T1 sequence (O89000 1-1025): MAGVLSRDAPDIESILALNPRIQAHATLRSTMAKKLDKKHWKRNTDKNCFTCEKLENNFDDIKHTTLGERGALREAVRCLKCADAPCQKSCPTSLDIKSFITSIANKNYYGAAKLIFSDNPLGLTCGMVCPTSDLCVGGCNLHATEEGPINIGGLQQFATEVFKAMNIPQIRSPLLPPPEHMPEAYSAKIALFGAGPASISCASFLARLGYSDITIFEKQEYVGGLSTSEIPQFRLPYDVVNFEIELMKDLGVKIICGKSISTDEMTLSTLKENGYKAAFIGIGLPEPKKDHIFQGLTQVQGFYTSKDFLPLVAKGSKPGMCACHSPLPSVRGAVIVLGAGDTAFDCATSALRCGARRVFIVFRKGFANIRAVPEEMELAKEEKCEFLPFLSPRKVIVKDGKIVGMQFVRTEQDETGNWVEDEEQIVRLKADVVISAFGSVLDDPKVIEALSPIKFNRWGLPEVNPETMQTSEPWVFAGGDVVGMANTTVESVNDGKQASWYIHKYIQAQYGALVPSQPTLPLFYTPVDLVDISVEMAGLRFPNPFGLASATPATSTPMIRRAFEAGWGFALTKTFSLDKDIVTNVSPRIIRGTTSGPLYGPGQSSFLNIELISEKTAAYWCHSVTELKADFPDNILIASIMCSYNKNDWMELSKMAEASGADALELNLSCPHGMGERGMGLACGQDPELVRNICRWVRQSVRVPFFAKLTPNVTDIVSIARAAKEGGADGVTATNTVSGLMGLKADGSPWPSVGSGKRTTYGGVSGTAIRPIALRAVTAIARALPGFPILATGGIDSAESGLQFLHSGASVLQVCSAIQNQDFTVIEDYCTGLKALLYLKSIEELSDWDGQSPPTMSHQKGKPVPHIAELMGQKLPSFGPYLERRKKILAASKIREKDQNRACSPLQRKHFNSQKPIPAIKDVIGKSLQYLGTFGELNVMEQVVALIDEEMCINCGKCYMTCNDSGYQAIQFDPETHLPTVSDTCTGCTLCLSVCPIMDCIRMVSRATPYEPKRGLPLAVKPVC
Put plainly: DPD inhibitory action in vitro (enzyme reaction, tritium-labeled 5-FU as substrate). Conditions: Conc. 0.02 μM; Table 5. The data set is classed as biochemical.

Data set [3] has as its system human gastric cancer strain (SC-2). As to the method: as §1, §2
Where [4] appears, read: oral, 14 days, Compound I-11 71 to 88 mg/kg/day, S-1 20 to 22.5 mg/kg/day.

With `CCOCn1cc(F)c(=O)n(C(=O)c2cccc(C(=O)Oc3cc(OC(=O)c4cc(OC(C)=O)nc(OC(C)=O)c4)c(Cl)cn3)c2)c1=O` [Compound I-10, 3-{3-[4-(2,6-diacetyloxyisonicotinoyloxy)-5-chloro-2-pyridyloxycarbonyl]benzoyl}-1-ethoxymethyl-5-fluorouracil], the antitumor effect entry in data set [1] (oral, 14 days, Compound I-10 51 to 77 mg/kg/day, S-1 15 to 22.5 mg/kg/day, FIG. 2-1) is listed as “high antitumor effects in a dose-dependent manner”. Moreover, in data set [1] (rat, in vivo), the diarrhea result is “not observed”, the “platelet count relative to that of the control group” value is listed as “the same as that of the control group” and the weight loss result was “not observed”.
Turning to `CCOCn1cc(F)c(=O)n(C(=O)c2cccc(C(=O)Oc3cc(OC(=O)c4cc(OC(=O)CC)nc(OC(=O)CC)c4)c(Cl)cn3)c2)c1=O` [Compound I-11, 3-{3-[4-(2,6-dipropionyloxyisonicotinoyloxy)-5-chloro-2-pyridyloxycarbonyl]benzoyl}-1-ethoxymethyl-5-fluorouracil], in data set [2], the “DPD Inhibitory Activity: Activity” value came out at 0.705 nmol/mL/min and testing at 0.02 µM gave an inhibition of 0%. Further, in data set [3] (71 to 88 mg/kg/day orally for 2 weeks, FIG. 1-2), the “white blood cell count, reduced to % of that of the control group” value was “about 50%”. For the same compound, the “platelet count relative to that of the control group” value in data set [3] (oral, 2 weeks, Compound I-11 71 to 88 mg/kg/day, S-1 20 to 22.5 mg/kg/day, FIG. 1-2) is reported as “almost the same as that of the control group”. Moreover, the toxic death result in data set [3] (oral, 14 days, Compound I-11 71 to 88 mg/kg/day) is recorded as “not observed”. Also, in data set [3] (setting [4]), the diarrhea entry is listed as “not observed” and the weight loss result is “not observed”. The antitumor effect result in data set [3] (oral, 14 days, Compound I-11 71 to 88 mg/kg/day, S-1 20 to 22.5 mg/kg/day, FIG. 1-1) is reported as “high antitumor effects in a dose-dependent manner”.
